Experimental data: patent publication US10207011B2, “Methods, systems, and devices for an invertebrate model of traumatic brain injury” (WISCONSIN ALUMNI RESEARCH FOUNDATION, priority 2013, dated 2019)

System: w^1118 flies
Assay: Mortality after standard TBI protocol in aspirin-fed flies
Format: in vivo, Drosophila
Details: 0-3-day old w^1118 flies cultured four days on food with 0.4 ml aspirin (200 mg/ml in DMSO) before standard TBI protocol; FIG. 5
From the text: Based on the data described in Example 2, we designed a standard TBI protocol for administering controlled impacts to generate primary injuries. The standard TBI protocol consisted of four impacts with five min recovery intervals between impacts. Reproducibility and rapidity were the driving forces behind the choice of protocol parameters. […] As a proof of concept for identifying an agent that could reduce the severity of an impact-associated phenotype, e.g., lethality, we tested whether, the non-steroidal anti-inflammatory drug, aspirin, affects TBI outcomes. Flies were treated with aspirin by feeding and then subjected to the standard TBI protocol. 0.4 ml of aspirin (200 mg/ml in DMSO) or DMSO only was added to vials with food and allowed to absorb into the food for two hours. 0-3-day old w^1118 flies, with an approximately equal number of male and female flies, were cultured on the food for four days. Flies were then left untreated or subjected to the standard TBI protocol. […] Thus, aspirin pre-treatment raises the primary injury threshold.

## CC(=O)Oc1ccccc1C(=O)O [aspirin]
  mortality 24 hours after a controlled impact, relative to DMSO-treated flies: lower mortality than the DMSO-treated flies
